Assay results taken from PubChem BioAssay AID1963828 (Molecular Pharmacology Branch, DTP, NCI, 2024).

System: 991263-137-R1-J2-PDC complex spheroid viability
Assay: Anticancer human tumor 991263-137-R1-J2-PDC patient-derived colon adenocarcinoma cell line growth inhibition [POLQ]
Conditions: for IC50: curve of first compound; for viability, T/C: stronger effect = lower value
In short: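 Patient-derived tumour cells were co-cultured with HUVEC and mesenchymal stem cells as multicellular spheroids at 37 °C. They were treated with POLQ inhibitors (novobiocin, ART-558, RP6685) alone or combined with other agents. Top concentrations were at or near clinical Cmax (otherwise 10 microM; SN-38 at 1 microM), decreasing in half-log steps.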

[1] = second compound 0.0316 µM, first compound 0.00316 µM
[2] = second compound 0.0316 µM, first compound 0.01 µM
[3] = second compound 0.0316 µM, first compound 0.0316 µM
[4] = second compound 0.0316 µM, first compound 0.1 µM
[5] = second compound 0.0316 µM, first compound 0.316 µM
[6] = second compound 0.0316 µM, first compound 1 µM
[7] = second compound 0.1 µM, first compound 0.00316 µM
[8] = second compound 0.1 µM, first compound 0.01 µM
[9] = second compound 0.1 µM, first compound 0.0316 µM
[10] = second compound 0.1 µM, first compound 0.1 µM
[11] = second compound 0.1 µM, first compound 0.316 µM
[12] = second compound 0.1 µM, first compound 1 µM
[13] = second compound 0.316 µM, first compound 0.00316 µM
[14] = second compound 0.316 µM, first compound 0.01 µM
[15] = second compound 0.316 µM, first compound 0.0316 µM
[16] = second compound 0.316 µM, first compound 0.1 µM
[17] = second compound 0.316 µM, first compound 0.316 µM
[18] = second compound 0.316 µM, first compound 1 µM
[19] = second compound 1 µM, first compound 0.00316 µM
[20] = second compound 1 µM, first compound 0.01 µM
[21] = second compound 1 µM, first compound 0.0316 µM
[22] = second compound 1 µM, first compound 0.1 µM
[23] = second compound 1 µM, first compound 0.316 µM
[24] = second compound 1 µM, first compound 1 µM
[25] = second compound 3.16 µM, first compound 0.00316 µM
[26] = second compound 3.16 µM, first compound 0.01 µM
[27] = second compound 3.16 µM, first compound 0.0316 µM
[28] = second compound 3.16 µM, first compound 0.1 µM
[29] = second compound 3.16 µM, first compound 0.316 µM
[30] = second compound 3.16 µM, first compound 1 µM
[31] = second compound 10 µM, first compound 0.00316 µM
[32] = second compound 10 µM, first compound 0.01 µM
[33] = second compound 10 µM, first compound 0.0316 µM
[34] = second compound 10 µM, first compound 0.1 µM
[35] = second compound 10 µM, first compound 0.316 µM
[36] = second compound 10 µM, first compound 1 µM
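Also: spheroids exposed to compounds for 7 days before readout.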
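For viability, T/C in this document: 100% = DMSO vehicle control viability.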

`C=CCn1c(=O)c2cnc(Nc3ccc(N4CCN(C)CC4)cc3)nc2n1-c1cccc(C(C)(C)O)n1` + Nc1ccc(C#CCN(C(=O)Cc2ncc(C(F)(F)F)cc2C(F)(F)F)c2ccc(F)cc2)nn1 gave an IC50 (second compound 0.0316 µM) of over 1000 nM, an IC50 (second compound 0.1 µM) of over 1000 nM and an IC50 (second compound 0.316 µM) of over 1000 nM. The IC50 (second compound 1 µM) was over 1000 nM, the IC50 (second compound 3.16 µM) was over 1000 nM and the IC50 (second compound 10 µM) was over 1000 nM. The viability, T/C [1] was 96.2%, the viability, T/C [2] was 100% and the viability, T/C [3] was 90.4%. For the same compound, the viability, T/C [4] was 102%, the viability, T/C [5] was 104% and the viability, T/C [6] was 97.8%. It also gave a viability, T/C [7] of 117%, a viability, T/C [8] of 105% and a viability, T/C [9] of 93.6%. It also gave a viability, T/C [10] of 101%, a viability, T/C [11] of 103% and a viability, T/C [12] of 93.8%. The viability, T/C [13] was 97.3%, the viability, T/C [14] was 98.2% and the viability, T/C [15] was 108%. For the same compound, the viability, T/C [16] was 96.3%, the viability, T/C [17] was 109% and the viability, T/C [18] was 93.5%. For the same compound, the viability, T/C [19] was 103%, the viability, T/C [20] was 115% and the viability, T/C [21] was 103%. For the same compound, the viability, T/C [22] was 105%, the viability, T/C [23] was 105% and the viability, T/C [24] was 92%. For the same compound, the viability, T/C [25] was 91.8%, the viability, T/C [26] was 102% and the viability, T/C [27] was 101%. It also gave a viability, T/C [28] of 92.1%, a viability, T/C [29] of 98.1% and a viability, T/C [30] of 102%. It also gave a viability, T/C [31] of 86.3%, a viability, T/C [32] of 102% and a viability, T/C [33] of 103%. The viability, T/C [34] was 99.4%, the viability, T/C [35] was 102% and the viability, T/C [36] was 78.2%.

In the case of `CC[C@@]1(O)C(=O)OCc2c1cc1n(c2=O)Cc2cc3c(CN(C)C)c(O)ccc3nc2-1` + Nc1ccc(C#CCN(C(=O)Cc2ncc(C(F)(F)F)cc2C(F)(F)F)c2ccc(F)cc2)nn1, the IC50 (second compound 0.0316 µM) is reported as over 100 nM, the IC50 (second compound 0.1 µM) is reported as over 100 nM and the IC50 (second compound 0.316 µM) is reported as over 100 nM. For the same compound, the IC50 (second compound 1 µM) was over 100 nM, the IC50 (second compound 3.16 µM) was over 100 nM and the IC50 (second compound 10 µM) was over 100 nM. The viability, T/C (second compound 0.0316 µM, first compound 0.000316 µM) was 94.8%, the viability, T/C (second compound 0.0316 µM, first compound 0.001 µM) was 92.6% and the viability, T/C [1] was 92.4%. It also gave a viability, T/C [2] of 101%, a viability, T/C [3] of 99.8% and a viability, T/C [4] of 80.2%. The viability, T/C (second compound 0.1 µM, first compound 0.000316 µM) was 111%, the viability, T/C (second compound 0.1 µM, first compound 0.001 µM) was 102% and the viability, T/C [7] was 101%. It also gave a viability, T/C [8] of 94.6%, a viability, T/C [9] of 101% and a viability, T/C [10] of 79.8%. For the same compound, the viability, T/C (second compound 0.316 µM, first compound 0.000316 µM) was 108%, the viability, T/C (second compound 0.316 µM, first compound 0.001 µM) was 109% and the viability, T/C [13] was 95.4%. It also gave a viability, T/C [14] of 107%, a viability, T/C [15] of 104% and a viability, T/C [16] of 76.8%. The viability, T/C (second compound 1 µM, first compound 0.000316 µM) was 104%, the viability, T/C (second compound 1 µM, first compound 0.001 µM) was 106% and the viability, T/C [19] was 101%. It also gave a viability, T/C [20] of 101%, a viability, T/C [21] of 101% and a viability, T/C [22] of 84.3%. The viability, T/C (second compound 3.16 µM, first compound 0.000316 µM) was 102%, the viability, T/C (second compound 3.16 µM, first compound 0.001 µM) was 94.9% and the viability, T/C [25] was 105%. For the same compound, the viability, T/C [26] was 93.1%, the viability, T/C [27] was 93.6% and the viability, T/C [28] was 65.6%. For the same compound, the viability, T/C (second compound 10 µM, first compound 0.000316 µM) was 102%, the viability, T/C (second compound 10 µM, first compound 0.001 µM) was 112% and the viability, T/C [31] was 107%. The viability, T/C [32] was 88.1%, the viability, T/C [33] was 91.1% and the viability, T/C [34] was 66.6%.

For `CCc1c2c(nc3ccc(O)cc13)-c1cc3c(c(=O)n1C2)COC(=O)[C@]3(O)CC` + Nc1ccc(C#CCN(C(=O)Cc2ncc(C(F)(F)F)cc2C(F)(F)F)c2ccc(F)cc2)nn1, the IC50 (second compound 0.0316 µM) was 81 nM, the IC50 (second compound 0.1 µM) was 62.1 nM and the IC50 (second compound 0.316 µM) was 101 nM. For the same compound, the IC50 (second compound 1 µM) was 110 nM, the IC50 (second compound 3.16 µM) was 90.9 nM and the IC50 (second compound 10 µM) was 94.1 nM. For the same compound, the viability, T/C [1] was 90.7%, the viability, T/C [2] was 76.1% and the viability, T/C [3] was 51.9%. It also gave a viability, T/C [4] of 51.2%, a viability, T/C [5] of 42% and a viability, T/C [6] of 26.2%. It also gave a viability, T/C [7] of 95.9%, a viability, T/C [8] of 78.6% and a viability, T/C [9] of 52.9%. It also gave a viability, T/C [10] of 45.3%, a viability, T/C [11] of 42.8% and a viability, T/C [12] of 30.2%. For the same compound, the viability, T/C [13] was 102%, the viability, T/C [14] was 89.6% and the viability, T/C [15] was 58%. The viability, T/C [16] was 52.9%, the viability, T/C [17] was 39.8% and the viability, T/C [18] was 25.6%. It also gave a viability, T/C [19] of 100%, a viability, T/C [20] of 81.5% and a viability, T/C [21] of 56.7%. The viability, T/C [22] was 55.4%, the viability, T/C [23] was 42.8% and the viability, T/C [24] was 28.2%. It also gave a viability, T/C [25] of 89.7%, a viability, T/C [26] of 72.7% and a viability, T/C [27] of 59.1%. The viability, T/C [28] was 48%, the viability, T/C [29] was 43.6% and the viability, T/C [30] was 24.3%. It also gave a viability, T/C [31] of 75%, a viability, T/C [32] of 65.1% and a viability, T/C [33] of 58.3%. For the same compound, the viability, T/C [34] was 53.3%, the viability, T/C [35] was 35.7% and the viability, T/C [36] was 24.5%.
